Data published in US9326513B2, “Fungicidal compositions” (Syngenta Participations AG, priority 2011, dated 2016).

What was measured:
[1] = test system: Blumeria graminis f. sp. tritici (Erysiphe graminis f. sp. tritici); assay: Blumeria graminis f. sp. tritici / wheat / leaf disc preventative (powdery mildew on wheat); type: in vivo; conditions: foliar, compared to untreated control leaf disks, read-out: disease control
Procedure, shortened: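 Preventative leaf-disc test: compound (200 ppm) was sprayed onto cv. Kanzler wheat segments, which were dusted with conidia from infected plants 1 day after application. After incubation at 20° C and 60% rh, disease control relative to untreated segments was rated 6-8 days after application.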

[2] = test system: Puccinia recondita f. sp. tritici; assay: Puccinia recondita f. sp. tritici / wheat / leaf disc curative (brown rust); type: in vivo; conditions: foliar, compared to untreated control leaf disks, read-out: disease control
Protocol: Puccinia recondita f. sp. tritici/Wheat/Leaf Disc Curative (Brown Rust) Wheat leaf segments cv. Kanzler are placed on agar in multiwell plates (24-well format). The leaf segments are inoculated with a spore suspension of the fungus. Plates were stored in darkness at 19° C. and 75% rh. The formulated test compound diluted in water was applied 1 day after inoculation.

Pyrenophora teres = Pyrenophora teres / barley / leaf disc preventative (net blotch); type: in vivo; conditions: foliar, compared to untreated control leaf disks, read-out: disease control
Excerpt: Pyrenophora teres/Barley/Leaf Disc Preventative (Net Blotch) Barley leaf segments cv. Hasso were placed on agar in a multiwell plate (24-well format) and sprayed with the formulated test compound diluted in water. The leaf segments were inoculated with a spore suspension of the fungus 2 days after application.

[3] = test system: Puccinia recondita f. sp. tritici; assay: Puccinia recondita f. sp. tritici / wheat / leaf disc preventative (brown rust); type: in vivo; conditions: foliar, compared to untreated control leaf disks, read-out: disease control
Excerpt: Puccinia recondita f. sp. tritici/Wheat/Leaf Disc Preventative (Brown Rust) Wheat leaf segments cv. Kanzler were placed on agar in multiwell plates (24-well format) and sprayed with the formulated test compound diluted in water. The leaf disks were inoculated with a spore suspension of the fungus 1 day after application.

Septoria tritici [4] = assay: Septoria tritici (leaf blotch), YBG microtiter plate, photometric growth inhibition after 6 days; type: cell-based; conditions: Zymoseptoria tritici, 144 h, read-out: Activity
Excerpt: In the following Tables ‘Activity (%)’ means the assessed experimental activity (% disease control in this test when compared to untreated control leaf disks under the same conditions, which show extensive disease development) and “P” is the expected value calculated (expected) activity according to the COLBY formula (see above). The column headed ‘S?’ indicates whether or not synergy was observed, with ‘y’ meaning that synergy was observed.
Septoria tritici (Leaf Blotch):
After placing solutions of the test compounds (containing 0.2% DMSO) into a microtiter plate (96-well format), an equal amount of the nutrient broth (YBG) was added to each of the well. Finally the fungal spore solution was added. The test plates were incubated at 20° C. The inhibition of growth was determined photometrically after 6 days and the activity calculated in relation to untreated control.

Septoria tritici [5] = assay: Septoria tritici (leaf blotch), PDB microtiter plate, visual after 72 hrs; type: cell-based; conditions: Zymoseptoria tritici, single compound
[6] = test system: Mycosphaerella arachidis (y. Cercospora arachidicola); assay: Mycosphaerella arachidis (brown leaf spot of groundnut), PDB microtiter plate, visual after 5-6 days; type: cell-based; conditions: Mycosphaerella arachidis, single compound, read-out: Activity (%)

SMILES | melting point [°C] | pest or weed control at 200 ppm [1] [%] | pest or weed control at 200 ppm [2] [%] | pest or weed control at 200 ppm (Pyrenophora teres) [%] | pest or weed control at 200 ppm [3] [%] | further results
CCCN(CCOc1c(Cl)cc(Cl)cc1Cl)C(=O)n1ccnc1 [Prochloraz] |  |  |  |  |  | inhibition of growth at 0.015625 ppm (Septoria tritici [4]): 48%; inhibition of growth at 0.03125 ppm (Septoria tritici [4]): 80%
CCN(C)/C=N/c1cc(Br)c(OCc2cccc(C(F)(F)F)c2)nc1C [Q.153] | 43 to 44 | ≥ 50 | ≥ 50 | ≥ 50 | ≥ 50 | 
C#Cc1cccc(COc2nc(C)c(/N=C/N(C)CC)cc2Br)c1 [Q.195] | 52 to 54 | ≥ 50 | ≥ 50 | ≥ 50 | ≥ 50 | 
CCN(C)/C=N/c1cc(Br)c(OCc2cccc(C)c2)nc1C [Q.128] | 60 to 62 | ≥ 50 | ≥ 50 | ≥ 50 | ≥ 50 | 
CCN(C)/C=N/c1cc(Br)c(OCc2ccnc(Cl)c2)nc1C [Q.111] | 57 to 59 | ≥ 50 | ≥ 50 | ≥ 50 | ≥ 50 | 
O=[N+]([O-])c1cc(C(F)(F)F)c(Cl)c([N+](=O)[O-])c1Nc1ncc(C(F)(F)F)cc1Cl [Fluazinam] |  |  |  |  |  | inhibition at 0.015625 ppm (Septoria tritici [5]; 0.015625 ppm): 0%; inhibition at 0.03125 ppm (Septoria tritici [5]; 0.03125 ppm): 20%; inhibition at 0.0625 ppm (Septoria tritici [5]; 0.0625 ppm): 70%; inhibition at 0.00390625 ppm ([6]; 0.00390625 ppm): 0%; inhibition at 0.0078125 ppm ([6]; 0.0078125 ppm): 0%; inhibition at 0.015625 ppm ([6]; 0.015625 ppm): 0%; inhibition at 0.03125 ppm ([6]; 0.03125 ppm): 0%; inhibition at 0.0625 ppm ([6]; 0.0625 ppm): 20%
CCN(C)/C=N/c1cc(Br)c(OC2CCCc3ccc(-c4cccc(F)c4)cc32)nc1C (stereo not drawn) [Q.137] | 43 to 45 |  |  |  | ≥ 50 | 

Continued, in another order:

melting point [°C] | SMILES | pest or weed control at 200 ppm [1] [%] | pest or weed control at 200 ppm [2] [%] | pest or weed control at 200 ppm (Pyrenophora teres) [%] | pest or weed control at 200 ppm [3] [%] | further results
67 to 68 | CCN(C)/C=N/c1cc(Br)c(OCc2cccc(F)c2C)nc1C [Q.322] | ≥ 50 | ≥ 50 | ≥ 50 | ≥ 50 | 
61 to 62 | CCN(C)/C=N/c1cc(Br)c(OCc2c(F)cccc2F)nc1C [Q.326] | ≥ 50 | ≥ 50 | ≥ 50 | ≥ 50 | 
27 to 30 | CCN(C)/C=N/c1cc(Br)c(OCc2ccc(F)cc2C)nc1C [Q.320] | ≥ 50 | ≥ 50 | ≥ 50 | ≥ 50 | 
53 to 56 | CCN(C)/C=N/c1cc(Br)c(OCc2ccccc2Cl)nc1C [Q.300] | ≥ 50 | ≥ 50 |  | ≥ 50 | 
